Key:
[1] = test system: mouse adult neural stem cells; assay: Thymidine incorporation, adult mouse NSC, non-adherent culture; assay type: cell-based; details: non-adherent conditions, 3 days, all PACAP treatments relative to controls
Method: To determine thymidine incorporation into DNA, neurospheres were split and seeded in Neurosphere medium as single cells in 96-well plates, 10,000 cells/well. Substances to be measured were added in quadruplicates and cells were incubated at 37° C. for 3 days. 3H-thymidine, 10 uCi/ml, was present the last 24 hours. Cells were harvested on to a filter paper and radioactivity was measured. 3H-thymidine (6,7 Ci/mmol) was from PerkinElmer.

[2] = test system: CREB phosphorylation; assay: Western blot of phosphorylated CREB, undifferentiated aHNSC; assay type: cell-based, human; details: 10 nM PACAP
Method: A biopsy from the anterior lateral wall of the lateral ventricle was taken from an adult human patient and enzymatically dissociated in PDD (Papain 2.5 U/ml; Dispase 1 U/ml; Dnase 1 250 U/ml) in DMEM containing 4.5 mg/ml glucose and 37° C. for 20 min. The cells were gently triturated and mixed with three volumes of Human Neural Stem Cell Plating Medium (HNSCPM) (DMEM/F12; 10% fetal bovine serum (FBS)). The cells were pelleted at 250×g for 5 min. The supernatant was subsequently removed and the cells resuspended in HNSCPM, plated out on fibronectin coated culture dishes and incubated at 37° C. in 5% CO2. The following day the expansion of the culture was initiated by change of media to aHNSC culture media (DMEM/F12; BIT 9500; EGF 20 ng/ml; FGF2 20 ng/ml). The aHNSC were split using trypsin and EDTA under standard conditions. FBS was subsequently added to inhibit the reaction and the cells collected by centrifugation at 250×g for 5 min. The aHNSC were replated in aHNSC culture media.
Adult mouse NSC and aHNSC were prepared and cultured as stated in Example 2 (Method A) and Example 1 (Method A). Cultures were exposed to either 10 nM PACAP or EGF (1 nM) and FGF (1 nM) for the times indicated. […] DNA content was detemined by the use of a Pico Green-kit for ds DNA quantitation of cell extracts. […] Phosphorylated CREB protein bands (43 kD) were detected using the ECL-kit (Amersham).

[3] = test system: CREB phosphorylation; assay: Western blot of phosphorylated CREB, adult mouse NSC, non-adherent; assay type: cell-based; details: 10 nM PACAP
Method: Adult mouse NSC and aHNSC were prepared and cultured as stated in Example 2 (Method A) and Example 1 (Method A). Cultures were exposed to either 10 nM PACAP or EGF (1 nM) and FGF (1 nM) for the times indicated. After treatment, the cells were lysed in lysis buffer, as shown in Patrone et al. (Patrone, Andersson et al. 1999). DNA content was detemined by the use of a Pico Green-kit for ds DNA quantitation of cell extracts. Total protein measurements were performed with Nano Orange-kit. Equal amounts of protein were run on a gradient gel 4-12% Bis-Tris gel (NuPage/Mops buffer) and transferred to a nitrocellulose membrane. Western blot was performed and phosphorylated CREB was labelled using a rabbit anti phospho-CREB (1:1000, Upstate biotechnology), a secondary anti rabbit HRP antibodies (1:10.000). Phosphorylated CREB protein bands (43 kD) were detected using the ECL-kit (Amersham).

[4] = test system: differentiating neural stem cells; assay: Intracellular ATP assay, differentiating adult mouse NSC, adherent culture; assay type: cell-based; details: varying concentrations, adherent conditions, 3 days, relative to control, dose-dependent
Method: Adult mouse NSC were cultivated from the anterior lateral wall of the lateral ventricle of 5-6 week old mice as described in Example 2 (Method A).
Mouse neurospheres, cultured as described above, from passage 2, were seeded in DMEM/F12 supplemented with B27 and 1% Fetal Calf Serum into a 96-well plate coated with poly-D-lysine as single cells (30000 cells/well) and cultured over-night. The following day the medium was replaced with Neurosphere medium and PACAP added to the concentrations indicated. After 3 days incubation, intracellular ATP was measured using the ATP-SL kit from BioThema, Sweden, according to the manufacturer's instructions.

pituitary adenylate cyclase-activating polypeptide [PACAP]
incorporation of tritiated thymidine [1]: Greater incorporation of tritiated thymidine | CREB phosphorylation ([2]; 15 min): strong upregulation | CREB phosphorylation ([2]; 240 min): slightly above basal levels | CREB phosphorylation ([3]; 15 min exposure): upregulated | CREB phosphorylation ([3]; 240 min): return to basal levels | intracellular ATP levels, and hence cell number [4]: statistically significant increase in intracellular ATP levels
